From ChEMBL document CHEMBL1201862, “PubChem BioAssay data set” (2004)
Calls of active or inactive are those of the source.

Experiments:
[1] = blockers of CRF-binding protein–CRF-R2 complex – cell-based, uHTS hits, 384-well, dose response (AID 651639); assay type: functional, Homo sapiens; conditions: read-out: IC50_Mean
[2] = target: T1, Corticotropin-releasing factor receptor 2/Corticotropin-releasing factor-binding protein (Homo sapiens, UniProt P24387+Q13324); experiment: Dose Response confirmation of uHTS hits for small molecule antagonists of the CRF-binding protein and CRF-R2 receptor complex.; assay type: functional; conditions: read-out: IC50_Mean
T1 sequence (Q13324 whole entry): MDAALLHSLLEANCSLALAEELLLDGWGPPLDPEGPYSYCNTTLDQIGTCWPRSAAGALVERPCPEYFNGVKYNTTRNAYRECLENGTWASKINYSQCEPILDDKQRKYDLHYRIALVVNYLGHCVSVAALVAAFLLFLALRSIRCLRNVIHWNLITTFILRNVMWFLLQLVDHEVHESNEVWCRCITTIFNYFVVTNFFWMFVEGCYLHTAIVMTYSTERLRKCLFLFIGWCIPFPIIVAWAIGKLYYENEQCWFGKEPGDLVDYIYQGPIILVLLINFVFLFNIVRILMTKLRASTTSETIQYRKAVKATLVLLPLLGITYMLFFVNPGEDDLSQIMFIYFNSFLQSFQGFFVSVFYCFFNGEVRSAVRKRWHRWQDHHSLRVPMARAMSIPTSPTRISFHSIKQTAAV
T1 sequence (P24387 whole entry): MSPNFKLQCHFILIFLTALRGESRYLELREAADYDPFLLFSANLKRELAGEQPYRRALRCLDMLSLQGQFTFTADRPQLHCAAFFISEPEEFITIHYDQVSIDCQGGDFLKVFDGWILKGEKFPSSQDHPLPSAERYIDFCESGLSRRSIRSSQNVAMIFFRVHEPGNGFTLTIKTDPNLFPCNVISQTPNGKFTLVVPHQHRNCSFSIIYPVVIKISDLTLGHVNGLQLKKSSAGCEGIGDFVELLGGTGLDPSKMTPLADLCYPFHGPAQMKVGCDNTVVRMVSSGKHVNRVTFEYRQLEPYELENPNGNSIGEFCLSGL

[3] = target: T1, Corticotropin-releasing factor receptor 2/Corticotropin-releasing factor-binding protein; experiment: activators of CRF receptor 2 with binding protein – uHTS hits, confirmation (AID 602473); assay type: functional; conditions: read-out: EC50_Mean
[4] = target: T2, Heat shock factor protein 1 (Mus musculus, UniProt P38532); experiment: enhancement of HSF1-driven luciferase signal – cell-based, NIH3T3, luminescence, dose retest, confirmation (AID 435004); assay type: functional;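 also: stress induced by proteasome inhibitor MG132 added 30 min after compound; luciferase reporter driven by HSF1 response element in NIH3T3 cells; actives raise luminescence as potentiators of the MG132 stress response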
T2 sequence (P38532 whole entry): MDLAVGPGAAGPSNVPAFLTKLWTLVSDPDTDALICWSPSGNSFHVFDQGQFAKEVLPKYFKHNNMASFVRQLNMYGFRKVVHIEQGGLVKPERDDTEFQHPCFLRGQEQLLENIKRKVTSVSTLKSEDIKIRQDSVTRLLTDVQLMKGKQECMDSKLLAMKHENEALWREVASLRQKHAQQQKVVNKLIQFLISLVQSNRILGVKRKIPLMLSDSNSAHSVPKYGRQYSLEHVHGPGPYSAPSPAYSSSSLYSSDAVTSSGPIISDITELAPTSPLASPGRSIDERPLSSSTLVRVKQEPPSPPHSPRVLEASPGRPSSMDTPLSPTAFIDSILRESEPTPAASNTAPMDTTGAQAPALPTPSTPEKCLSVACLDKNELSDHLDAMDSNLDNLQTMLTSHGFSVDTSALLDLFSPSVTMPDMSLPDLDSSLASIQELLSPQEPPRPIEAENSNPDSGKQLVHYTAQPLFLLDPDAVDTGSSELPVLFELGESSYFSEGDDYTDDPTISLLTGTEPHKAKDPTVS

Beta-galactosidase = Beta-galactosidase (Escherichia coli, UniProt Q8VNN2); experiment: Dose response counterscreen for EBI2 assay utilizing the enzyme, b-galactosidase.; assay type: functional
Chain of Beta-galactosidase (Q8VNN2 whole entry): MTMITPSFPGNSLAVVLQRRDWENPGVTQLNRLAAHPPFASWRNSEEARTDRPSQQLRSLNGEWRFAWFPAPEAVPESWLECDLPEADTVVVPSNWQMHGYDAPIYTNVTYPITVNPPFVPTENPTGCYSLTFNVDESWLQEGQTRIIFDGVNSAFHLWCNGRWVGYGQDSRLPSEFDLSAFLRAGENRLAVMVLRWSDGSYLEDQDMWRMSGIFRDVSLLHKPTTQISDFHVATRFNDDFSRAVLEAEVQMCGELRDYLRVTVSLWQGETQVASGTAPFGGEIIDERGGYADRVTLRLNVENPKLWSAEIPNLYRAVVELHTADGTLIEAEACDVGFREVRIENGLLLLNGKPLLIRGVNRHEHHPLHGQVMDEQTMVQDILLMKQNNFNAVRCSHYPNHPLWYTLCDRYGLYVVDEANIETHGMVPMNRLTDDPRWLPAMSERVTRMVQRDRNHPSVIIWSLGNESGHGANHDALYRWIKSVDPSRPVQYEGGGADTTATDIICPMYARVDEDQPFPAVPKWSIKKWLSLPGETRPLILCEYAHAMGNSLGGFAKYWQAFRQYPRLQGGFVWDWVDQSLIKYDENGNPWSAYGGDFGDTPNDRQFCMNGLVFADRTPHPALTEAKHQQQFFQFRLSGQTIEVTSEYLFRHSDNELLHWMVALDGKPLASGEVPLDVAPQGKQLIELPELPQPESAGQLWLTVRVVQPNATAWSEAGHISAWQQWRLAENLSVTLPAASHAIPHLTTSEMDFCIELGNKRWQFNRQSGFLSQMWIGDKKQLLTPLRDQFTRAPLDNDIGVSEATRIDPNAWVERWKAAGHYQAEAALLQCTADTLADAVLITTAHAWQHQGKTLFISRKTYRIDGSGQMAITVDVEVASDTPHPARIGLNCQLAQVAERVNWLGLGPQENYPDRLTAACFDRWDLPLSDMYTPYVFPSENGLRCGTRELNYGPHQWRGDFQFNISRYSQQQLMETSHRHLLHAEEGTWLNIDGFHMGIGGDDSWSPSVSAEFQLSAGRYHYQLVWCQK

[5] = target: Long-chain-fatty-acid--AMP ligase FadD28 (Mycobacterium tuberculosis, UniProt P9WQ59); experiment: Fluorescence polarization aasay to screen for inhibitors that compete for the binding of FadD28 to a bisubstrate Measured in Biochemical System Using Plate Reader - 2147-01_Inhibitor_Dose_CherryPick_Activity.; assay type: functional, Mycobacterium tuberculosis H37Rv
Chain of Long-chain-fatty-acid--AMP ligase FadD28 (P9WQ59 whole entry): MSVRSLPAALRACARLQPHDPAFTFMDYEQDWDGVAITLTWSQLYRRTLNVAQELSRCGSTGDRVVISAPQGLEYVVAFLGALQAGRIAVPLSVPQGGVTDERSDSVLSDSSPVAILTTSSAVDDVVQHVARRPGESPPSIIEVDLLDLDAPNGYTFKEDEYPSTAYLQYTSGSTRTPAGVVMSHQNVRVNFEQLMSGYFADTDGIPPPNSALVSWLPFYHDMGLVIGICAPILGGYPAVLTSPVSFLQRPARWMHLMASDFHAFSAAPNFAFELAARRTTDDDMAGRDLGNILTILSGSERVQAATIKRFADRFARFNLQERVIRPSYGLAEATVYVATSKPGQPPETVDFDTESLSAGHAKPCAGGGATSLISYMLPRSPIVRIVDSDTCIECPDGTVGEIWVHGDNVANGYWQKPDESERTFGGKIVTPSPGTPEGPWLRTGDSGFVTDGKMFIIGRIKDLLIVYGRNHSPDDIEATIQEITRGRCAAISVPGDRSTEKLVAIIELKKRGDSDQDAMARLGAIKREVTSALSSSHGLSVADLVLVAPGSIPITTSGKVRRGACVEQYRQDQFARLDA

[6] = target: T2, Heat shock factor protein 1; experiment: decrease of HSF1-responsive luciferase luminescence – cell-based, NIH3T3, dose retest, confirmation (AID 2382); assay type: functional;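 also: NIH3T3 fibroblasts with HSF1-driven luciferase reporter stressed by proteasome inhibitor MG132; luminescence from HSF1-driven luciferase expression after 8 hours of MG132 stress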
[7] = toxicity toward HepG2 liver cells – cell-based, plate reader, cherry-pick, antagonist series, cytotoxicity control, dose response (AID 743416); assay type: functional
[8] = viability loss in HEK293 cells – cell-based, plate reader, cherry-picked samples, cytotoxicity control, dose response (AID 743446); assay type: functional
[9] = A549 cell cytotoxicity, dose response, cytotoxicity control, plate reader, cherry-pick, antagonist series (AID 743412); assay type: functional, cell-based
[10] = blockade of melanocortin 4 receptor signaling – cell-based, plate reader, cherry pick, counter-screen for LGR2 antagonist project, dose response (AID 743444); assay type: functional;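 also: transfected HEK 293 cells stimulated with alpha-MSH peptide; potency of inhibitors of the alpha-MSH evoked signal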
[11] = blockers of bursicon-stimulated LGR2 cAMP reporter – cell-based, HEK293, CRE-luciferase reporter, cherry pick, set 2, dose response (AID 743343); assay type: functional;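 also: transfected cells were stimulated with diluted bursicon conditioned medium after compound addition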
[12] = target: T3, Tyrosine-protein phosphatase non-receptor type 22 (Homo sapiens, UniProt Q9Y2R2); experiment: lymphoid phosphatase LYP inhibitors – biochemical, selectivity assay for STEP inhibitor project, dose response (AID 624241); assay type: functional
T3 sequence (Q9Y2R2 whole entry): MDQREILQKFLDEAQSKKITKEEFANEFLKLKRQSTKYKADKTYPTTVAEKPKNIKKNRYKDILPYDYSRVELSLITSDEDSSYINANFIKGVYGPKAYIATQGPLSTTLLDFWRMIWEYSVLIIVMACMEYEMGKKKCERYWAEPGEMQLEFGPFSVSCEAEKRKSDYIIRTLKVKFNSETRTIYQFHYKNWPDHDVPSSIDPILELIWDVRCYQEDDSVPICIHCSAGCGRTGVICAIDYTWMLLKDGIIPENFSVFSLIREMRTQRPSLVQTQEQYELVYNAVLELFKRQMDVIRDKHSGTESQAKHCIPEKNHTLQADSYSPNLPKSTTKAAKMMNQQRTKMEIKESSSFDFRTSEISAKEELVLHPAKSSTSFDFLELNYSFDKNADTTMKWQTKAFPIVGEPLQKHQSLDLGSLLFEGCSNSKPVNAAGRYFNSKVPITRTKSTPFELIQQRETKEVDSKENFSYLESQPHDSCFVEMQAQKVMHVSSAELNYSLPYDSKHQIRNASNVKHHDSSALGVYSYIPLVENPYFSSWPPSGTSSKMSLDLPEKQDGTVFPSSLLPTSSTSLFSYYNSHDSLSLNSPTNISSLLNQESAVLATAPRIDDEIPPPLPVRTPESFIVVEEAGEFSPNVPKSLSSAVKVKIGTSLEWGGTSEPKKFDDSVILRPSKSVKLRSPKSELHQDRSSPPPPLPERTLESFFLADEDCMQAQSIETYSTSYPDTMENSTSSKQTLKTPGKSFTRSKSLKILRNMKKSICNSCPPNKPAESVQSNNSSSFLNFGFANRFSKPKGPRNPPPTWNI

[13] = target: Tyrosine-protein phosphatase non-receptor type 11 (Homo sapiens, UniProt Q06124); experiment: PTPN11 enzyme inhibitors – biochemical, selectivity assay for STEP inhibitor project, dose response (AID 602367); assay type: functional; conditions: read-out: IC50_Mean
Chain of Tyrosine-protein phosphatase non-receptor type 11 (Q06124 whole entry): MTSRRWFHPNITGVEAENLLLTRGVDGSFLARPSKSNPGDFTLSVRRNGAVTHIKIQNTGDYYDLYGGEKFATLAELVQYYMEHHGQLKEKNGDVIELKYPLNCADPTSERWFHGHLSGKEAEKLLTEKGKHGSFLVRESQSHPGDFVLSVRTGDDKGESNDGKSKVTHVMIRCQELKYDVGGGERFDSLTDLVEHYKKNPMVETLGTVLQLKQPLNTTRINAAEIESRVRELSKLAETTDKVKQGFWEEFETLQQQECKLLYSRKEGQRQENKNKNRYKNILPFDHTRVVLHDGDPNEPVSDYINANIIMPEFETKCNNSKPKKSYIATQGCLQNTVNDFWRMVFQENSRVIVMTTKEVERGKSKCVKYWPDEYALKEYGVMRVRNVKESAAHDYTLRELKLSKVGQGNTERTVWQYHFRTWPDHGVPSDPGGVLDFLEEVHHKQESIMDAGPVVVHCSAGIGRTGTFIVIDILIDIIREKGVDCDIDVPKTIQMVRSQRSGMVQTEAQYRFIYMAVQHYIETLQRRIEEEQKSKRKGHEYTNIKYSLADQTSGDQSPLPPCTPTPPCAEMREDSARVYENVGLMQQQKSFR

[14] = target: Tyrosine-protein phosphatase non-receptor type 5 (Homo sapiens, UniProt P54829); experiment: PTPN5 enzyme inhibition – biochemical, fluorescence intensity, uHTS hits, confirmation (AID 602372); assay type: functional; conditions: read-out: IC50_Mean
Chain of Tyrosine-protein phosphatase non-receptor type 5 (P54829 whole entry): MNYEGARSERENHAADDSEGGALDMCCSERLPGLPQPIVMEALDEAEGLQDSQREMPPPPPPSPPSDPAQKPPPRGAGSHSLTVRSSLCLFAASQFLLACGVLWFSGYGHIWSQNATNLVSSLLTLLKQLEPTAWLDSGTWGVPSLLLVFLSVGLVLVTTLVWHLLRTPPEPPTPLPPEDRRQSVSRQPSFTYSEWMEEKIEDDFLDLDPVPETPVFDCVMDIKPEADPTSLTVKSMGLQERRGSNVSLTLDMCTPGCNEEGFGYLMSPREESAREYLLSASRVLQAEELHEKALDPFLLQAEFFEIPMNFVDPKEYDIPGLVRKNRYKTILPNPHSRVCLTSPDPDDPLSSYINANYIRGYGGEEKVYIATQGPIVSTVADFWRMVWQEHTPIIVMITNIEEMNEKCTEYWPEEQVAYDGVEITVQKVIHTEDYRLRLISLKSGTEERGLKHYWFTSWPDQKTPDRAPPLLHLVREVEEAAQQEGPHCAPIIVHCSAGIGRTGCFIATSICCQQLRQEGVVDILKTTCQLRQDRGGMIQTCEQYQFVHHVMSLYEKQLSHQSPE

[15] = target: Dual specificity protein phosphatase 3 (Homo sapiens, UniProt P51452); experiment: VHR phosphatase inhibition, dose response, selectivity assay for STEP inhibitor project, biochemical (AID 602374); assay type: functional; conditions: read-out: IC50_Mean
Chain of Dual specificity protein phosphatase 3 (P51452 whole entry): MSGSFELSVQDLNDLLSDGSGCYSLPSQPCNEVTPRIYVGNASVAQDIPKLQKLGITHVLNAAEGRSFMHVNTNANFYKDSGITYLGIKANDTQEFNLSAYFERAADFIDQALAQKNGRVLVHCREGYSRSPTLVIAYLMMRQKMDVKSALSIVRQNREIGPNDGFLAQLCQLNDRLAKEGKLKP

[16] = HGIII-sPLA2 enzyme inhibition potency – biochemical, QFRET, IC50, dose response (AID 743457);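 also: green fluorescence rise as the enzyme cleaves BODIPY PC-A2 in liposomes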
[17] = target: T4, Probable nicotinate-nucleotide adenylyltransferase (Staphylococcus aureus (strain N315), UniProt P65502); assay type: functional, Staphylococcus aureus subsp. aureus N315; conditions: read-out: IC50_Mean;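 as to IC50 Mean: confirmatory dose-response retesting of NadD inhibitor hits first found in an ultra-high-throughput screen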
T4 sequence (P65502 whole entry): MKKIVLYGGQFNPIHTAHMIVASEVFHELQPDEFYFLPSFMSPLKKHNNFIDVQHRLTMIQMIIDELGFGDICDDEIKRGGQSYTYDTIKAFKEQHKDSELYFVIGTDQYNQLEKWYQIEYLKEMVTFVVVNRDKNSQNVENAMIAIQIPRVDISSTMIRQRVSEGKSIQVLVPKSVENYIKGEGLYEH

[18] = target: T4, Probable nicotinate-nucleotide adenylyltransferase; assay type: functional, Staphylococcus aureus subsp. aureus N315
[19] = target: T5, Carboxy-terminal domain RNA polymerase II polypeptide A small phosphatase 1 (Homo sapiens, UniProt Q9GZU7); experiment: CTDSP1 inhibitors, concentration-response, biochemical, absorbance readout, ultra-high-throughput screen actives (AID 540297); assay type: functional
T5 sequence (Q9GZU7 whole entry): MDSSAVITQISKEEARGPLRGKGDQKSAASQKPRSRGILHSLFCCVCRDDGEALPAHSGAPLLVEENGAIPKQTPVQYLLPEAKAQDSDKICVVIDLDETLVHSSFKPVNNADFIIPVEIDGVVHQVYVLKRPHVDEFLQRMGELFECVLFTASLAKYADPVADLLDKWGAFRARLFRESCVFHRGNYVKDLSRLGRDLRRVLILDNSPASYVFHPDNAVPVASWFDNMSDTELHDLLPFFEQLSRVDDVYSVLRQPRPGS

[20] = target: T6, Low molecular weight phosphotyrosine protein phosphatase (Homo sapiens, UniProt P24666); assay type: functional; conditions: read-out: IC50_Mean
T6 sequence (P24666 whole entry): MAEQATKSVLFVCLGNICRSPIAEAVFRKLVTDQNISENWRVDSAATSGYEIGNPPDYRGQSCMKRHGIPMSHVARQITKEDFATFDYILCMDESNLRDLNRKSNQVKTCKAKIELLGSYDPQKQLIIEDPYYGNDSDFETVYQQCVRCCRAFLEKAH

[21] = target: T7, Small ubiquitin-related modifier 1 (Homo sapiens, UniProt P63165); experiment: SUMO1 protein interaction blockers, potency – biochemical, fluorescence polarization, uHTS hits, dose response (AID 624382); assay type: functional; conditions: read-out: IC50_Mean
T7 sequence (P63165 whole entry): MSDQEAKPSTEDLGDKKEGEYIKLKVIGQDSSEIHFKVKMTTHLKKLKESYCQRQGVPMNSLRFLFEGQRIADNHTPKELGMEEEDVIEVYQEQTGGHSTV

[22] = target: T7, Small ubiquitin-related modifier 1; experiment: SUMO1 protein-protein binding blockers, potency – biochemical, FRET, dose response (AID 624383); assay type: functional; conditions: read-out: IC50_Mean
[23] = target: T6, Low molecular weight phosphotyrosine protein phosphatase; assay type: functional; conditions: read-out: IC50_Mean; remark: listed apart in the source
HEK293 = experiment: EBV LMP1 TES2 canonical NF-kB signalling blockers – cell-based, HEK293, luciferase, cherry-pick, dose response (AID 588343); assay type: functional; conditions: Homo sapiens
[24] = Luminescence Cell-Based Dose Retest to Confirm Inhibitors of Cancer Stem Cells. [Related pubchem assays (depositor defined):AID2717, AID2721]; assay type: functional; conditions: Homo sapiens
INS1 = experiment: INS-1E survival protection against cytokine death – cell-based, luminescence, retest, dose response (AID 449756); assay type: functional; conditions: Rattus norvegicus;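 also: cell death triggered by IL-1 beta plus TNF-alpha plus IFN-gamma mixture; protective hits raise ATP signal compared with cytokine alone wells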
[25] = P. falciparum Dd2 growth inhibitors, dose response, SYBR Green, cherry-picked samples (AID 1159567); assay type: functional, cell-based
Paired box protein Pax-8 = Paired box protein Pax-8 (Homo sapiens, UniProt Q06710); experiment: PAX8 transcriptional activity inhibition in RMG-I – RMG-I cells, luciferase, cherry-pick, dose response (AID 687027); assay type: functional, cell-based;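 also: luciferase reporter driven by Pax8 target thyroperoxidase promoter measured by SteadyGlo luminescence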
Chain of Paired box protein Pax-8 (Q06710 whole entry): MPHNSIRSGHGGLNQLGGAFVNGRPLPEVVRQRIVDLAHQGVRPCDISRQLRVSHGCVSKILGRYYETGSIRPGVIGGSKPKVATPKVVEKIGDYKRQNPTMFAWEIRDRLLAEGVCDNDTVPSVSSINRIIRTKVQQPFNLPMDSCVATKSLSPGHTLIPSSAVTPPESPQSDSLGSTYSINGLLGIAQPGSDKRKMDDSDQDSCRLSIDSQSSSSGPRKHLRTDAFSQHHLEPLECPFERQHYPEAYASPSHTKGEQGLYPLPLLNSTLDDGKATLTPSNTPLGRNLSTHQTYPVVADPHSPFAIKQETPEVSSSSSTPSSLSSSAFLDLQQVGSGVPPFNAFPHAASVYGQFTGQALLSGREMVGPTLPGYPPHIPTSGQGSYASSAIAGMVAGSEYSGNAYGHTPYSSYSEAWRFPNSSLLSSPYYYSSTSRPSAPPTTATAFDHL

[26] = toxicity to human hepatoma HepG2 cells – cell-based, cherry-picked samples, cytotoxicity control, dose response (AID 1159577); assay type: functional
[27] = IGROV1 cell killing – plate reader, dry powder samples, PAX8 inhibitor project, dose response (AID 743043); assay type: functional, cell-based; conditions: IGROV-1

COC(=O)CSC1=C(C#N)C(c2ccc(Cl)cc2)C(C(=O)OC)C(=O)N1 (centres undefined)
IC50 [1]: 13.4 µM (active) | IC50 [2]: 24 µM (active) | EC50 [3]: > 53 µM (inactive)

CCn1cc(C(=O)NN)c(=O)c2cc(F)c(NC3CCCCC3)cc21
EC50 [4]: > 260 µM (inactive) | IC50 (Beta-galactosidase): > 80 µM (inactive)

CCn1c(C)cc(/C=C2\NC(=O)N(CC(=O)Nc3cccc(C)c3)C2=O)c1C
AC50 [5]: 77.2 µM (active)

O=C(NC(=S)Nc1c(Cl)ccc2nsnc12)c1ccccc1F
IC50 [1]: > 20 µM (inactive) | IC50 [2]: 2.88 µM (active) | EC50 [3]: > 53 µM (inactive)

O=C(O)c1ccc2nc(-c3ccccc3)sc2c1
EC50 [6]: 5.85 µM (active) | AC50 [7]: > 52 µM (inactive) | AC50 [8]: > 52 µM (inactive) | AC50 [9]: > 52 µM (inactive) | AC50 [10]: 3.35 µM (active) | AC50 [11]: 3.7 µM (active)

COc1ccc(Cl)cc1N=C(S)N(CCCN1CCOCC1)Cc1cn(C)c2ccccc12
IC50 [12]: 38.5 µM (inactive) | IC50 [13]: 2.07 µM (active) | IC50 [14]: 13.9 µM (active) | IC50 [15]: 0.754 µM (active)

O=C(NN=C(S)Nc1ccc(F)cc1)[C@H]1C[C@@H]1c1ccccc1
IC50 [16]: > 122 µM (inactive)

NC(CSC1(c2ccc(Cl)cc2)c2ccccc2-c2ccccc21)C(=O)O (centres undefined)
IC50 [17]: 34.2 µM (active) | IC50 [18]: 11.7 µM (active)

Cc1cc(C(=O)N/N=C/c2ccc(-c3ccc([N+](=O)[O-])cc3Cl)o2)[nH]n1
IC50 [19]: 7.05 µM (active) | IC50 [12]: > 100 µM (inactive) | IC50 [20]: > 80 µM (inactive) | IC50 [21]: > 66.6 µM (inactive) | IC50 [13]: 3.42 µM (active) | IC50 [22]: 13.8 µM (active) | IC50 [14]: 6.83 µM (active) | IC50 [23]: 19 µM (active) | IC50 [15]: 1.36 µM (active)

Cc1cc(C)nc(SCc2ccc(C(=O)N/N=C/c3cccc(O)c3O)cc2)n1
AC50 (HEK293): 9.36 µM (active) | IC50 [16]: > 122 µM (inactive) | AC50 [24]: 3.83 µM (active) | AC50 (INS1): 2.22 µM (active)

C[C@@H]1CN([C@@H](C)CO)C(=O)Cc2cc(NC(=O)Nc3ccccc3)ccc2O[C@H]1CN(C)Cc1ccc(Oc2ccccc2)cc1
AC50 [25]: 1.05 µM (active) | AC50 (Paired box protein Pax-8): 9.84 µM (active) | AC50 [26]: 12.9 µM (active) | AC50 [27]: 55.6 µM (active)
